Measurements from US20010029239A1, “New herbicidal compositions” (priority 1999, published 2001).

Assay: Pre-emergence (experimental example 1) and post-emergence (experimental example 2) herbicidal tests, reported together
Type: in vivo
Conditions: 336 h; one or more weed species, in one or both of experimental examples 1 (pre-emergence, 250 g/ha) and 2 (post-emergence, 250 g/ha or less); two weeks after treatment, versus untreated control; read-out: reduction in the growth of one or more weed species
Protocol: Seed of various broad-leaf and grass weed species were sown and herbicide, dissolved in a mixture of acetone and water, was applied at a rate of 250 g/ha to the soil surface. The said weeds are Amaranthus retroflexus, Abutilon theophrasti, Galium aparine, Ipomoea purpurea, Setaria viridis, Alopecurus myosuroides, Avena fatua and Echinochloa crus-calli. Two weeks after treatment the percentage reduction in plant growth was assessed in comparison with an untreated control. Seed of the various weed species, as listed in experimental example 1, were sown and grown up to a 1-3 leaves stage. A post-emergence application of herbicide, dissolved in a mixture of acetone and water, was applied at a rate of 250 g/ha or less. Two weeks after treatment the percentage reduction in plant growth was assessed, in comparison with an untreated control.

Row | SMILES | pest or weed control at up to 250 g/ha
1 | COC=C(Oc1cccc(COc2ccc(OC)cc2)c1C(=O)O)C(=O)OC [Compound 19, methyl 2-[2-carboxy-3-(4-methoxyphenoxymethyl)phenoxy]-3-methoxypropenoate] | ≥ 80%
2 | COC=C(Oc1cccc(COC(C)=O)c1C(=O)O)C(=O)OC [Compound 2, methyl 2-(3-acetoxymethyl-2-carboxyphenoxy)-3-methoxypropenoate] | ≥ 80%
3 | COC=C(Oc1cccc(COc2ccc(Cl)cc2)c1C(=O)O)C(=O)OC [Compound 17, methyl 2-(2-carboxy-3-(4-chlorophenoxymethyl)phenoxy)-3-methoxypropenoate] | ≥ 70%
4 | COC=C(Oc1cccc(COc2ccc(C#N)cc2)c1C(=O)O)C(=O)OC [Compound 18, methyl 2-[2-carboxy-3-(4-cyanophenoxymethyl)phenoxy]-3-methoxypropenoate] | ≥ 70%
5 | COC=C(Oc1cccc(COc2ccccc2)c1C(=O)O)C(=O)OC [Compound 16, methyl 2-(2-carboxy-3-phenoxymethylphenoxy)-3-methoxypropenoate] | ≥ 80%
6 | COC=C(Oc1cccc(OC(=COC)C(=O)OC)c1C(=O)O)C(=O)OC [Compound 1, 2,6-bis(2-methoxy-1-methoxycarbonyl-vinyloxy)benzoic acid] | ≥ 80%
7 | COC=C(Oc1cccc(COc2ccc(C)cc2)c1C(=O)O)C(=O)OC [Compound 20, methyl 2-[2-carboxy-3-(4-methylphenoxymethyl)phenoxy]-3-methoxypropenoate] | ≥ 70%
8 | C#CCOC(=O)c1c(OC(=COC)C(=O)OC)cccc1OC(=COC)C(=O)OC [Compound 13, propargyl 2,6-bis(2-methoxy-1-methoxycarbonyl-vinyloxy)benzoate] | ≥ 80%
